Here are results for 29 compounds from US6812226B2, “P2X7 receptor antagonists for use in the treatment of inflammatory, immune or cardiovascular disease” (AstraZeneca AB, priority 1999, dated 2004).

The term melting point denotes the temperature of the solid-liquid transition. Take `O=C(O)c1ccccc1C(=O)c1ccc(N2CCC(N3C(=O)OCc4ccccc43)CC2)c([N+](=O)[O-])c1`: the melting point was 243 to 244 °C.
Regarding `CC(C)NC(=O)c1ccc(N2CCC(N3C(=O)OCc4ccccc43)CC2)nn1`, the melting point amounted to 120 °C.
On to `COCCNC(=O)c1ccc(N2CCC(N3C(=O)OCc4ccccc43)CC2)c([N+](=O)[O-])c1`, for which the melting point was 192 to 193 °C.
Compound `CC(C)NS(=O)(=O)c1ccc(N2CCC(N3C(=O)OCc4ccccc43)CC2)c([N+](=O)[O-])c1` showed a melting point of 168 °C.
`Nc1ccc(N2CCC(N3C(=O)OCc4ccccc43)CC2)c(Cl)c1`: the melting point was 158 °C.
The compound `CC(C)NC(=O)c1ccc(N2CCC(N3C(=O)OCc4ccccc43)CC2)c(C#N)c1` registered a melting point of 200 °C.
For the compound `CC(C)C(=O)Nc1ccc(N2CCC(N3C(=O)OCc4ccccc43)CC2)c(Cl)c1`, the melting point is 228 °C.
`CC(C)S(=O)(=O)Nc1ccc(N2CCC(N3C(=O)OCc4ccccc43)CC2)c(Cl)c1` yielded a melting point of 175 °C.
Consider `CN1CCC[C@H]1C(=O)Nc1ccc(N2CCC(N3C(=O)OCc4ccccc43)CC2)c(Cl)c1`, for which the melting point was determined as 155 °C.
Compound `CC(C)NC(=O)c1cnc(N2CC[C@H](N3C(=O)OCc4ccccc43)[C@@H](C)C2)c(Cl)c1.Cl` gave a melting point of 195 °C.
Next, `CC(C)NC(=O)c1cnc(N2CCC(N3C(=O)OCc4ccccc43)CC2)nc1`: 236 to 239 °C.
Next, `CC(C)NC(=O)c1csc(N2CCC(N3C(=O)OCc4ccccc43)CC2)n1`: 214 to 215 °C; `CC(C)NC(=O)c1ccc(N2CCC(N3C(=O)OCc4ccccc43)CC2)c(S(C)(=O)=O)c1`: 240 to 242 °C; `CC(C)[C@@H](NC(=O)c1cnc(N2CCC(N3C(=O)OCc4ccccc43)CC2)c(Cl)c1)C(N)=O`: 140 to 143 °C.
`CC(CO)NC(=O)c1cnc(N2CCC(N3C(=O)OCc4ccccc43)CC2)c(Cl)c1` (centres unmarked) yielded a melting point of 125 to 128 °C.
In turn, `C#CC(C)(C)NC(=O)c1cnc(N2CCC(N3C(=O)OCc4ccccc43)CC2)c(Cl)c1` returned a melting point of 135 to 138 °C.
The compound `N#CC(NC(=O)c1cnc(N2CCC(N3C(=O)OCc4ccccc43)CC2)c(Cl)c1)C(N)=O` (centres unmarked) came in with a melting point of 159 to 162 °C.
Turning to `CC(C)C[C@@H](NC(=O)c1cnc(N2CCC(N3C(=O)OCc4ccccc43)CC2)c(Cl)c1)C(N)=O`, the melting point lay in the range of 139 to 142 °C.
`CC(C)C[C@H](NC(=O)c1cnc(N2CCC(N3C(=O)OCc4ccccc43)CC2)c(Cl)c1)C(N)=O`: the melting point was 139 to 142 °C.
`CC(C)NC(=O)c1cnc(N2CCC(N3C(=O)COc4ccccc43)CC2)c(Cl)c1` showed a melting point of 85 to 88 °C.
For `CC(C)NC(=O)c1ccc(N2CCC(N3C(=O)OCc4ccccc43)CC2)c([N+](=O)[O-])c1`, the melting point was 193 to 195 °C.
The compound `CC(C)NC(=O)c1cnc(N2CCC(N3C(=O)OCc4ccccc43)CC2)nc1C(F)(F)F` showed a melting point of 217 to 219 °C.
On to `O=C1OCc2ccccc2N1C1CCN(c2ccc(NCc3ncc[nH]3)cc2Cl)CC1`, for which the melting point fell in the range of 222 to 224 °C.
For the compound `O=C(c1ccccc1)c1ccc(N2CCC(N3C(=O)OCc4ccccc43)CC2)c([N+](=O)[O-])c1`, the melting point was 272 to 273 °C.
As to `COC(=O)c1ccccc1C(=O)c1ccc(N2CCC(N3C(=O)OCc4ccccc43)CC2)c([N+](=O)[O-])c1`, the melting point lay within 177 to 179 °C.
Next, `NC(=O)c1ccccc1C(=O)c1ccc(N2CCC(N3C(=O)OCc4ccccc43)CC2)c([N+](=O)[O-])c1`: 180 to 182 °C.
`O=C(O)c1ccccc1C(=O)c1ccc(N2CCC(N3C(=O)CCc4ccccc43)CC2)c([N+](=O)[O-])c1` returned a melting point of 201 to 203 °C.
Compound `COC(=O)c1ccccc1C(=O)c1ccc(N2CCC(N3C(=O)OCc4ccc(Cl)cc43)CC2)c([N+](=O)[O-])c1` showed a melting point of 90 to 92 °C.
Next, `CC(C)NC(=O)c1cnc(N2CCC(n3c(=O)oc4ccccc43)CC2)c(Cl)c1` [Example 166, 5-Chloro-N-(1-methylethyl)-6-[4-(2-oxo-1,3-benzoxazol-3(2H)-yl)piperidin-1-yl]pyridine-3-carboxantide]: 162 to 168 °C.
